{"source": "patent US9585386B2", "about": "“Microbicidal composition” (Dow Global Technologies LLC, priority 2013, dated 2017)", "format_in_all_cases": "cell-based", "key": {"any organism tested": {"tested_on": "any organism tested", "assay": "Synergy of other biocides paired with surfactants", "conditions": "for ratio of surfactant to biocide where synergy was observed: not commercially relevant (less biocide relative to surfactant)", "method": "(§1) Surfactants and biocides were evaluated for synergy by determining the synergy index (S.I.) of the combination. Synergy index was calculated based on minimum inhibitory concentrations (MIC) of two antimicrobial compounds (A and B) alone and in combinations. The tests organisms were Gram negative bacteria (Pseudomonas aeruginosa ATCC #15442), Gram positive bacteria (Staphylococcus aureus ATCC #6538), yeast (Candida albicans ATCC #10203) and mold (Aspergillus niger ATCC#16404). Contact time for the bacteria was 24 and 48 hours, yeast was 48 and 72 hrs, and 3 and 7 days for mold. The test was carried out in 96 well microtiter plates. • Surf. A R^1O(CH2CH(CH3)O)5(CH2CH2O)9H, where R^1 is 2-ethylhexyl • Surf. D R^2O(CH2CH(CH3)O)3(CH2CH2O)5H • Surf. E R^2O(CH2CH(CH3)O)3(CH2CH2O)7H In Surf. D and Surf. E, R^2 is a mixture of C8-C14 linear alkyl groups (70% C8-C10 linear alkyl and 30% C12-C14 linear alkyl) Inoculums Used\n(§2) SI is calculated as follows: Ca/CA+Cb/CB=Synergy Index (“SI”)\n(§3) Wherein: • CA=concentration of compound A in ppm, acting alone, which produced an end point (MIC of Compound A). • Ca=concentration of compound A in ppm, in the mixture, which produced an end point. • CB=concentration of compound B in ppm, acting alone, which produced an end point (MIC of Compound B). • Cb=concentration of compound B in ppm, in the mixture, which produced an end point. When the sum of Ca/CA and Cb/CB is greater than one, antagonism is indicated.\nA • Sodium Benzoate, TRIS NITRO Surf. E • DMDMH Surf. […] At these ratios, the biocide levels in a formulated product would be too low to be practical: Surf. A • DIDAC, IPBC Surf. E • CMIT/MIT, IPBC, OIT, TTPC, WSCP Surf."}, "[1]": {"tested_on": "Aspergillus niger ATCC#16404", "assay": "MIC / synergy index test in 96 well microtiter plates, mold", "conditions": "PDB, 3rd day; for MIC: Aspergillus niger, ATCC16404, read-out: CB (MIC of compound B alone), MIT alone, inoculum 1.156E+06 CFU/ml; for Cb (concentration of compound B in the mixture which produced an end point): 1.156E+06 CFU/ml", "method": "as §1\n(§4) The pH of the Triptic soy broth was 7.3 and the Potato dextrose broth was 5.1.\nas §2, §3"}, "[2]": {"tested_on": "Candida albicans ATCC #10203", "assay": "MIC / synergy index test in 96 well microtiter plates, yeast", "conditions": "for CB (MIC of compound B alone): MIT alone; for CB (MIC of compound B alone) / Cb (concentration of compound B in the mixture which produced an end point): PDB, 48 hrs", "method": "as §1, §4, §2, §3"}, "[3]": {"tested_on": "Pseudomonas aeruginosa ATCC #15442", "assay": "MIC / synergy index test in 96 well microtiter plates, Gram negative bacteria", "conditions": "for Cb (concentration of compound B in the mixture which produced an end point): 1/10 TSB, 24 hrs; for MIC: Pseudomonas aeruginosa, ATCC15442, 24 h", "method": "as §1, §4, §2, §3"}, "[4]": {"tested_on": "Staphylococcus aureus ATCC #6538", "assay": "MIC / synergy index test in 96 well microtiter plates, Gram positive bacteria", "method": "as §1, §4, §2, §3"}}, "note": "Where “and” joins values, the source holds several entries; their conditions need not be identical. Identical values can stand only once. Like-named read-outs stand apart in the source and are kept apart here.", "data": [{"molecule": "CC1(C)C(=O)N(CO)C(=O)N1CO", "note": "[DMDMH]", "values": [{"measurement": "Synergy against any organism tested", "setting": "any organism tested; biocide paired with Surf. D", "value": "no synergy"}, {"measurement": "Synergy against any organism tested", "setting": "any organism tested; biocide paired with Surf. E", "value": "no synergy"}]}, {"molecule": "CCCCCCCCCC[N+](C)(C)CCCCCCCCCC.[Cl-]", "note": "[DIDAC]", "values": [{"measurement": "ratio of surfactant to biocide where synergy was observed", "setting": "any organism tested; biocide paired with Surf. A", "value": "1:0.2 or greater"}, {"measurement": "ratio of surfactant to biocide where synergy was observed", "setting": "any organism tested; biocide paired with Surf. D", "value": "1:0.2 or greater"}]}, {"molecule": "O=C([O-])c1ccccc1.[Na+]", "note": "[Sodium Benzoate]", "values": [{"measurement": "Synergy against any organism tested", "setting": "any organism tested; biocide paired with Surf. A", "value": "no synergy"}]}, {"molecule": "Cn1sccc1=O", "note": "[MIT, 2-methyl-4-isothiazolin-3-one]", "values": [{"measurement": "MIC", "setting": "[1]; Surf. A series", "value": 400, "unit": "µg/mL"}, {"measurement": "MIC", "setting": "[1]; Surf. E series", "value": 300, "unit": "µg/mL"}, {"measurement": "Cb (concentration of compound B in the mixture which produced an end point)", "setting": "[1]; MIT in mixture with Surf. A", "value": 300, "unit": "ppm"}, {"measurement": "Cb (concentration of compound B in the mixture which produced an end point)", "setting": "[1]; MIT in mixture with Surf. E", "value": 200, "unit": "ppm"}, {"measurement": "MIC", "setting": "[2]; Candida albicans, ATCC10203, 48 h, read-out: CB (MIC of compound B alone)", "value": 200, "unit": "µg/mL"}, {"measurement": "CB (MIC of compound B alone)", "setting": "[2]; Surf. D series, inoculum 5.726E+05 CFU/ml", "value": 200, "unit": "ppm"}, {"measurement": "CB (MIC of compound B alone)", "setting": "[2]; Surf. E series, inoculum 1.808E+06", "value": 200, "unit": "ppm"}, {"measurement": "Cb (concentration of compound B in the mixture which produced an end point)", "setting": "[2]; MIT in mixture with Surf. A, 1.156E+06 CFU/ml", "value": 100, "unit": "ppm"}, {"measurement": "Cb (concentration of compound B in the mixture which produced an end point)", "setting": "[2]; MIT in mixture with Surf. D, 5.726E+05 CFU/ml", "value": "50 ppm and 60 ppm and 80 ppm and 100 ppm"}, {"measurement": "Cb (concentration of compound B in the mixture which produced an end point)", "setting": "[3]; MIT in mixture with Surf. A, 8.134E+07 CFU/ml", "value": 30, "unit": "ppm"}, {"measurement": "Cb (concentration of compound B in the mixture which produced an end point)", "setting": "[3]; MIT in mixture with Surf. D, 1.16E+08", "value": 20, "unit": "ppm"}, {"measurement": "MIC", "setting": "[3]; read-out: CB (MIC of compound B alone), MIT alone, Surf. A series, 1/10 TSB, inoculum 8.134E+07 CFU/ml", "value": 40, "unit": "µg/mL"}, {"measurement": "MIC", "setting": "[3]; read-out: CB (MIC of compound B alone), MIT alone, Surf. D series, 1/10 TSB, inoculum 1.16E+08", "value": 30, "unit": "µg/mL"}, {"measurement": "CB (MIC of compound B alone)", "setting": "[4]; MIT alone, Surf. E series, 1/10 TSB, inoculum 1.808E+06 CFU/ml, 24 hrs", "value": 60, "unit": "ppm"}, {"measurement": "Cb (concentration of compound B in the mixture which produced an end point)", "setting": "[4]; MIT in mixture with Surf. E, 1/10 TSB, 1.808E+06 CFU/ml, 24 hrs", "value": "50 ppm and 40 ppm and 30 ppm"}, {"measurement": "MIC", "setting": "[4]; Staphylococcus aureus, ATCC6538, 24 h, read-out: CB (MIC of compound B alone)", "value": 60, "unit": "µg/mL"}]}, {"molecule": "O=[N+]([O-])C(CO)(CO)CO", "note": "[TRIS NITRO]", "values": [{"measurement": "Synergy against any organism tested", "setting": "any organism tested; biocide paired with Surf. A", "value": "no synergy"}]}, {"molecule": "CCCCNC(=O)OCC#CI", "note": "[IPBC]", "values": [{"measurement": "ratio of surfactant to biocide where synergy was observed", "setting": "any organism tested; biocide paired with Surf. A", "value": "1:0.2 or greater"}, {"measurement": "ratio of surfactant to biocide where synergy was observed", "setting": "any organism tested; biocide paired with Surf. D", "value": "synergistic only at 1:0.05 or worse"}, {"measurement": "ratio of surfactant to biocide where synergy was observed", "setting": "any organism tested; biocide paired with Surf. E", "value": "1:0.2 or greater"}]}, {"molecule": "CCC12COCN1COC2", "note": "[CS-1246]", "values": [{"measurement": "Synergy against any organism tested", "setting": "any organism tested; biocide paired with Surf. D", "value": "no synergy"}]}, {"molecule": "Oc1ccccc1-c1ccccc1", "note": "[OPP]", "values": [{"measurement": "Synergy against any organism tested", "setting": "any organism tested; biocide paired with Surf. D", "value": "no synergy"}]}, {"molecule": "Cn1sc2ccccc2c1=O", "note": "[MBIT]", "values": [{"measurement": "ratio of surfactant to biocide where synergy was observed", "setting": "any organism tested; biocide paired with Surf. D", "value": "synergistic only at 1:0.05 or worse"}]}, {"molecule": "CCCCCCCCCCCCCC[P+](CCCC)(CCCC)CCCC.[Cl-]", "note": "[TTPC]", "values": [{"measurement": "ratio of surfactant to biocide where synergy was observed", "setting": "any organism tested; biocide paired with Surf. E", "value": "1:0.2 or greater"}]}, {"molecule": "CCCCCCCCn1sccc1=O", "note": "[OIT]", "values": [{"measurement": "ratio of surfactant to biocide where synergy was observed", "setting": "any organism tested; biocide paired with Surf. D", "value": "1:0.2 or greater"}, {"measurement": "ratio of surfactant to biocide where synergy was observed", "setting": "any organism tested; biocide paired with Surf. E", "value": "1:0.2 or greater"}]}]}
